{
  "source": "patent US20200206200A1",
  "about": "“PROPHYLACTIC AND/OR THERAPEUTIC AGENT CONTAINING PYRIDYLAMINOACETIC ACID COMPOUND” (priority 2015, published 2020)",
  "tested_on": "ocular hypertensive monkeys",
  "assay": "Intraocular pressure-lowering effect in laser-induced ocular hypertensive monkeys",
  "type": "in vivo, Macaca fascicularis",
  "details": "0.01 w/v% solution",
  "experimental": "To investigate the usefulness of the present compound A, an intraocular pressure-lowering effect of the present compound A was tested in experimental animals (ocular hypertensive monkeys). Regarding test solutions, a reference solution not containing the present compound A was used as a control, a solution containing the present compound A was prepared as Example 1 of the invention of the present application, and a latanoprost eye drop was prepared as Comparative Example 1, as shown below.\nTo 1.7 g of polyoxyl 35 castor oil, 10 mL of a 0.5% (w/v) disodium edetate/10% (w/v) glycerin solution, 1 mL of a 1% (w/v) benzalkonium chloride solution, 30 mL of purified water, and 50 mL of a 2% (w/v) boric acid/0.2% (w/v) sorbic acid solution were added and dissolved therein. […]\n(2) The intraocular pressure was measured immediately before instillation of one of the test solutions (the above-described control, Example 1, and Comparative Example 1), and employed as the initial intraocular pressure. […]\n(4) After 2 hours, 4 hours, and 6 hours had passed from the instillation of the test solution, one drop of the 0.4% oxybuprocaine hydrochloride eye drop was instilled for local anesthesia to the eye whose intraocular pressure was to be measured, and then the intraocular pressure was measured. In addition, the intraocular pressure was measured three times, and the average value was shown in the results. […]",
  "note": "Entries after “also recorded” stand apart in the source; their conditions may differ.",
  "data": [
    {"compound": "CC(C)OC(=O)CNc1cccc(CN(Cc2ccc(-n3cccn3)cc2)S(=O)(=O)c2cccnc2)n1", "note": "[present compound A, isopropyl (6-{ [4-(pyrazol-1-yl)benzyl] (pyridin-3-ylsulfonyl)aminomethyl}pyridin-2-ylamino)acetate]", "values": [
      {"measurement": "intraocular pressure-lowering activity (in words)", "value": "larger than that in the latanoprost-treated group; also recorded: rapidly provided an excellent intraocular pressure-lowering effect"},
      {"measurement": "time after administration by which excellent intraocular pressure-lowering activity was exhibited", "value": "≤ 2", "unit": "h"}
    ]}
  ]
}
